Measured values as given in ChEMBL document CHEMBL4680270, “Synthesis and biological evaluation of novel pyrazoline derivatives containing indole skeleton as anti-cancer agents targeting topoisomerase II” (Eur J Med Chem, 2020).
pIC50: −log10 of the molar value. Calls of active or inactive are those of the source. The calls are words filed in the database; no cut-off is given here.

Columns and labels:
MCF7 = assay: Antiproliferative activity against human MCF7 cells assessed as reduction in cell growth incubated for 48 hrs by MTT assay; type: functional, cell-based; settings: MCF7, 48 h
HeLa = assay: Antiproliferative activity against human HeLa cells assessed as reduction in cell growth incubated for 48 hrs by MTT assay; type: functional, cell-based
MGC-803 [1] = assay: Antiproliferative activity against human MGC-803 cells assessed as reduction in cell growth incubated for 48 hrs by MTT assay; type: functional, cell-based; settings: MGC-803, 48 h
BEL-7404 tumor cell line = assay: Antiproliferative activity against human Bel-7404 tumor cell line assessed as reduction in cell growth incubated for 48 hrs by MTT assay; type: functional, cell-based; settings: BEL-7404, 48 h
[2] = Cytotoxicity against […] tumor cell line assessed as reduction in cell viability incubated for 48 hrs by MTT assay; settings: L929, 48 h
[3] = biological target: T1, DNA topoisomerase 1 (Homo sapiens) (UniProt P11387); assay: Inhibition of human topoisomerase 1 assessed as decrease in relaxation of supercoiled pBR322 plasmid DNA at 100 uM using pBR322 plasmid DNA as substrate incubated for 30 mins by agarose gel electrophoresis
T1 sequence (whole entry): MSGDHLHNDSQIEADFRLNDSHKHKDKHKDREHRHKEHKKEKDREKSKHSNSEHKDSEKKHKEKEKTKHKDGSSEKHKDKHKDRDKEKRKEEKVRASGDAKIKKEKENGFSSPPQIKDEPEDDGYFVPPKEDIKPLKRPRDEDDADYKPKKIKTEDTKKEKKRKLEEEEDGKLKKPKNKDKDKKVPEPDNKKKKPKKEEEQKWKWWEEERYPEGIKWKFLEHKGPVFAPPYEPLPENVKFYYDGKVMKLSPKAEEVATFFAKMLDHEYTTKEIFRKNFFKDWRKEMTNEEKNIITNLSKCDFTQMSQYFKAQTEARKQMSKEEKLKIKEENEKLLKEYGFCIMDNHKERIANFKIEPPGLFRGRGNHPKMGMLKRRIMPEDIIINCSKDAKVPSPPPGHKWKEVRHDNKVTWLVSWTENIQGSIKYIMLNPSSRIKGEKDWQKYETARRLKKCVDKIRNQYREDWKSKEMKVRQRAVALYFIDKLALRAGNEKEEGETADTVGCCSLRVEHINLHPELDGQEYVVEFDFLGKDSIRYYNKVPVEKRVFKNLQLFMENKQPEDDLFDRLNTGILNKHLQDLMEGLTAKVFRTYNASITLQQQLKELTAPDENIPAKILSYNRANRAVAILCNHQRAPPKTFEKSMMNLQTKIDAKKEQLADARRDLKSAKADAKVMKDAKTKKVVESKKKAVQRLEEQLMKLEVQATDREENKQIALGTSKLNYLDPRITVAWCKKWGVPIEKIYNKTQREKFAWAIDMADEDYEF

MGC-803 [4] = assay: Inhibition of topoisomerase 2 purified from human MGC-803 cells assessed as decrease in relaxation of supercoiled pBR322 plasmid DNA at 100 uM using pBR322 plasmid DNA as substrate incubated for 30 mins by agarose gel electrophoresis; type: cell-free
MGC-803 [5] = assay: Inhibition of topoisomerase 2 purified from human MGC-803 cells assessed as decrease in relaxation of supercoiled pBR322 plasmid DNA at 20 uM using pBR322 plasmid DNA as substrate incubated for 30 mins by agarose gel electrophoresis; type: cell-free
[6] = biological target: DNA topoisomerase 2-alpha (Homo sapiens) (UniProt P11388); assay: Poison activity at human topoisomerase 2alpha assessed as DNA cleavage by measuring linear DNA formation at 100 to 300 uM using supercoiled pBR322 DNA as substrate incubated for 30 mins by agarose gel electrophoresis method; settings: dose 100-300 µM
Homo sapiens = species: Homo sapiens; assay: Inhibition of human topoisomerase 2 assessed as EtBr intercalation into plasmid DNA by converting relaxed DNA into supercoiled DNA at 100 to 300 uM incubated for 30 mins by agarose gel electrophoresis method; settings: dose 100-300 µM
MGC-803 [7] = assay: Induction of apoptosis in human MGC-803 cells assessed as viable cells at 10 uM incubated for 48 hrs by annexin V-FITC and PI staining based flow cytometry analysis (reference value: 94.47 %); type: functional; settings: read-out: Activity
MGC-803 [8] = assay: Induction of apoptosis in human MGC-803 cells assessed as early apoptotic cells at 10 uM incubated for 48 hrs by annexin V-FITC and PI staining based flow cytometry analysis (reference value: 2.54 %); type: functional
MGC-803 [9] = assay: Induction of apoptosis in human MGC-803 cells assessed as late apoptotic cells at 10 uM incubated for 48 hrs by annexin V-FITC and PI staining based flow cytometry analysis (reference value: 2.96 %); type: functional
MGC-803 [10] = assay: Induction of apoptosis in human MGC-803 cells assessed as necrotic cells at 10 uM incubated for 48 hrs by annexin V-FITC and PI staining based flow cytometry analysis (reference value: 0.03 %); type: functional
MGC-803 [11] = assay: Induction of apoptosis in human MGC-803 cells assessed as viable cells at 20 uM incubated for 48 hrs by annexin V-FITC and PI staining based flow cytometry analysis (reference value: 94.47 %); type: functional; settings: read-out: Activity
MGC-803 [12] = assay: Induction of apoptosis in human MGC-803 cells assessed as early apoptotic cells at 20 uM incubated for 48 hrs by annexin V-FITC and PI staining based flow cytometry analysis (reference value: 2.54 %); type: functional
MGC-803 [13] = assay: Induction of apoptosis in human MGC-803 cells assessed as late apoptotic cells at 20 uM incubated for 48 hrs by annexin V-FITC and PI staining based flow cytometry analysis (reference value: 2.96 %); type: functional
MGC-803 [14] = assay: Induction of apoptosis in human MGC-803 cells assessed as necrotic cells at 20 uM incubated for 48 hrs by annexin V-FITC and PI staining based flow cytometry analysis (reference value: 0.03 %); type: functional
MGC-803 [15] = assay: Induction of cell cycle arrest in human MGC-803 cells assessed as G0/G1 phase at 10 uM incubated for 48 hrs by PI staining based flow cytometry analysis (reference value: 47.6 %); type: functional
MGC-803 [16] = assay: Induction of cell cycle arrest in human MGC-803 cells assessed as S phase at 10 uM incubated for 48 hrs by PI staining based flow cytometry analysis (reference value: 43.6 %); type: functional
MGC-803 [17] = assay: Induction of cell cycle arrest in human MGC-803 cells assessed as G2/M phase at 10 uM incubated for 48 hrs by PI staining based flow cytometry analysis (reference value: 8.8 %); type: functional
[18] = Drug uptake in human MGC-803 cells at 10 uM incubated for 8 hrs by laser scanning confocal microscope; type: ADME, cell-based; settings: mgc-803, 8 h

Sequence of DNA topoisomerase 2-alpha (Homo sapiens) (P11388 whole entry): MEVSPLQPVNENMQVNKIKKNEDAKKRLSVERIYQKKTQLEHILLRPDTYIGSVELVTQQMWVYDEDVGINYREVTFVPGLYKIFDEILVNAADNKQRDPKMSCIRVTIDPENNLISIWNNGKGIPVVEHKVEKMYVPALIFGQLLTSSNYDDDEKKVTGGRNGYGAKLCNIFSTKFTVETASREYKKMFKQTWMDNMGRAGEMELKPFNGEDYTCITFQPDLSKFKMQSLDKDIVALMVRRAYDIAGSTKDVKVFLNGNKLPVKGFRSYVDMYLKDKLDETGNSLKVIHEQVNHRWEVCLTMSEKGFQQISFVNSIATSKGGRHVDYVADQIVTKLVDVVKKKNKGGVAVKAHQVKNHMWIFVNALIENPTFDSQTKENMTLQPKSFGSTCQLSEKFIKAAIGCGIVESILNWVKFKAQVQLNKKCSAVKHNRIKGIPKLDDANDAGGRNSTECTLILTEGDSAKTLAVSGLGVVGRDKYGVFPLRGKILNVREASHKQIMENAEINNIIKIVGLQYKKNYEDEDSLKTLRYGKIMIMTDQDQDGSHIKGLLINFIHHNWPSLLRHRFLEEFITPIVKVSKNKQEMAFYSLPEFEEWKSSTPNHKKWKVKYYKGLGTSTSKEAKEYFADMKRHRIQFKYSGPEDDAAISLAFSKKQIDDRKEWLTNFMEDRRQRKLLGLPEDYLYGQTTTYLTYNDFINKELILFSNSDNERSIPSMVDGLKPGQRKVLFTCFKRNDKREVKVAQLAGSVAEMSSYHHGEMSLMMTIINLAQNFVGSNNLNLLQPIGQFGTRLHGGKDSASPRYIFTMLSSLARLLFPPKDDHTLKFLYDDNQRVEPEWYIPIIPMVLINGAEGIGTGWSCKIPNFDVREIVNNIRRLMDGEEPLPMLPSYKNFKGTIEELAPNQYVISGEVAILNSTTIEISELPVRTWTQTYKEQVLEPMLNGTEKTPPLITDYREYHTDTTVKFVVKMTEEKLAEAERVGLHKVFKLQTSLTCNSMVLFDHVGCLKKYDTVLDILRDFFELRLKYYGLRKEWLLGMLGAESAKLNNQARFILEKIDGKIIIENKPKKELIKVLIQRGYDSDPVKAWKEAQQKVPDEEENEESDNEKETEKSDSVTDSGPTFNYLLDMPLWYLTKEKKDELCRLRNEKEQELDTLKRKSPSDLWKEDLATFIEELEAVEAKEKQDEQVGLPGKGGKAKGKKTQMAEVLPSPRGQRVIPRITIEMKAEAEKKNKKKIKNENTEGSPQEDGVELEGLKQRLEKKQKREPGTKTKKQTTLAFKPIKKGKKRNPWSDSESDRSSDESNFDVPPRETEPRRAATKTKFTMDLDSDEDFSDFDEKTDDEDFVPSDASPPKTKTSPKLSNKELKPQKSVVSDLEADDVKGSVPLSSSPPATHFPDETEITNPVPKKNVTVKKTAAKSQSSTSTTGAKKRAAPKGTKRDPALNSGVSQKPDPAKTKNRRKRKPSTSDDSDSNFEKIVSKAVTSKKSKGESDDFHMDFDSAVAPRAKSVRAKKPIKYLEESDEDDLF

Compound | pIC50 (MCF7) | pIC50 (HeLa) | pIC50 (MGC-803 [1]) | pIC50 (BEL-7404 tumor cell line) | inhibition [3] | pIC50 [2] | inhibition (MGC-803 [4]) | inhibition (MGC-803 [5]) | other results
Clc1cc(Cl)c2c(c1)C1=NN(c3ccccc3)C(c3c[nH]c4ccccc34)C1CS2 (stereo unspecified) | 4.59 | 4.60 | 4.69 | 4.68 | inactive | 3.98 | Active | Active | inhibition [6]: inactive; inhibition (Homo sapiens): inactive; viability at 10 µM (MGC-803 [7]): 89.6%; Activity (MGC-803 [8]): 4.92%; Activity (MGC-803 [9]): 4.99%; Activity (MGC-803 [10]): 0.5%; viability at 20 µM (MGC-803 [11]): 49.2%; Activity (MGC-803 [12]): 12.17%; Activity (MGC-803 [13]): 36.06%; Activity (MGC-803 [14]): 2.54%; Activity (MGC-803 [15]): 49.7%; Activity (MGC-803 [16]): 25.4%; Activity (MGC-803 [17]): 24.9%; Drug uptake [18]: Active
Fc1cccc2c1SCC1C2=NN(c2ccccc2)C1c1c[nH]c2ccccc12 (stereo unspecified) | 4.45 | 4.50 | 4.51 | 4.44 | inactive | 3.80 | Active | Active | –
Cc1cc(C)c2c(c1)C1=NN(c3ccccc3)C(c3c[nH]c4ccccc34)C1CS2 (stereo unspecified) | 4.57 | 4.53 | 4.58 | 4.62 | inactive | 3.87 | – | – | –
Cc1cccc2c1SCC1C2=NN(c2ccccc2)C1c1c[nH]c2ccccc12 (stereo unspecified) | 4.42 | 4.43 | 4.55 | 4.24 | inactive | 3.72 | Active | – | –
Cn1cc(C2C3CSc4ccc(Cl)cc4C3=NN2c2ccccc2)c2ccccc21 (stereo unspecified) | 4.29 | 4.31 | 4.48 | 4.44 | inactive | 3.58 | – | – | –
Cc1cc2c(cc1F)C1=NN(c3ccccc3)C(c3c[nH]c4ccccc34)C1CS2 (stereo unspecified) | 4.32 | 4.39 | 4.56 | 4.21 | inactive | 3.83 | Active | – | –
Cc1ccc(C)c2c1SCC1C2=NN(c2ccccc2)C1c1c[nH]c2ccccc12 (stereo unspecified) | 4.42 | 4.40 | 4.45 | 4.43 | inactive | 3.74 | Active | Active | –
COc1cc([C@@H]2c3cc4c(cc3[C@@H](O[C@@H]3O[C@@H]5CO[C@@H](C)O[C@H]5[C@H](O)[C@H]3O)[C@H]3COC(=O)[C@H]23)OCO4)cc(OC)c1O [ETOPOSIDE] | 5.84 | 5.27 | 4.95 | 5.11 | – | 4.09 | – | – | –

Continued, in another order:

pIC50 (MCF7) | pIC50 (HeLa) | pIC50 (MGC-803 [1]) | pIC50 (BEL-7404 tumor cell line) | inhibition [3] | Compound | pIC50 [2] | inhibition (MGC-803 [4]) | inhibition (MGC-803 [5]) | other results
4.42 | 4.30 | 4.41 | 4.30 | inactive | Fc1ccc2c(c1)C1=NN(c3ccccc3)C(c3c[nH]c4ccccc34)C1CS2 (stereo unspecified) | 3.76 | Active | Active | –
4.58 | 4.42 | 4.81 | 4.37 | inactive | Clc1ccc2c(c1)C1=NN(c3ccccc3)C(c3c[nH]c4ccccc34)C1CS2 (stereo unspecified) | 3.80 | Active | Active | viability at 10 µM (MGC-803 [7]): 69.9%; Activity (MGC-803 [8]): 12.32%; Activity (MGC-803 [9]): 17.02%; Activity (MGC-803 [10]): 0.73%; viability at 20 µM (MGC-803 [11]): 36.9%; Activity (MGC-803 [12]): 8.17%; Activity (MGC-803 [13]): 52.74%; Activity (MGC-803 [14]): 2.18%; Activity (MGC-803 [15]): 38.1%; Activity (MGC-803 [16]): 25.3%; Activity (MGC-803 [17]): 36.6%; Drug uptake [18]: Active
4.14 | 4.56 | 4.57 | < 3.92 | inactive | Clc1cc2c(cc1Cl)C1=NN(c3ccccc3)C(c3c[nH]c4ccccc34)C1CS2 (stereo unspecified) | 3.78 | Active | Active | –
4.17 | 4.44 | 4.66 | < 3.92 | inactive | Cc1ccc2c(c1)C1=NN(c3ccccc3)C(c3c[nH]c4ccccc34)C1CS2 (stereo unspecified) | 3.80 | Active | Active | –
4.43 | 4.45 | 4.53 | 4.49 | inactive | Clc1ccc2c(c1)C1=NN(c3ccccc3)C(c3c[nH]c4ccc(Br)cc34)C1CS2 (stereo unspecified) | 3.81 | – | – | –
< 3.92 | < 3.92 | 4.44 | < 3.92 | inactive | COc1ccc2c(c1)C1=NN(c3ccccc3)C(c3c[nH]c4ccccc34)C1CS2 (stereo unspecified) | 3.92 | Active | – | –
